Data published in US10206394B2, “Herbicidal compounds” (Syngenta Participations AG, priority 2014, dated 2019).
Read-outs that look alike come from different tables or passages of the source.

Experiments:
Assay in all cases: Glasshouse assay for herbicidal activity (pre- and post-emergence), percentage phytotoxicity
Format in all cases: in vivo
[1] = system: Echinochloa crus-galli (ECHCG); settings: Echinochloa crus-galli
Method in brief: (§1)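 Pot-grown plants treated one day after sowing (pre-emergence) or at about 12 days (post-emergence); glasshouse at 24/18° C (warm) or 20/16° C (cool species) day/night, 16 h light, 65% humidity. Visual % phytotoxicity (0 = none, 100 = total damage) scored at 15 DAA post or 20 DAA pre.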

[2] = system: Avena fatua (AVEFA); settings: Avena fatua
Method in brief: as §1

[3] = system: Alopecurus myosuroides (ALOMY); settings: Alopecurus myosuroides
Method in brief: as §1

[4] = system: Lolium perenne (LOLPE); settings: Lolium perenne
Method in brief: as §1

[5] = post-emergence, 360 h, Rate 250 g/ha, post-emergence, visual assessment 15 DAA, 100%=total damage, 0%=no damage, read-out: Post-emergence herbicidal activity (percentage phytotoxicity) ECHCG POST
[6] = pre-emergence, 480 h, Rate 250 g/ha, pre-emergence, visual assessment 20 DAA, 100%=total damage, 0%=no damage, read-out: Pre-emergence herbicidal activity (percentage phytotoxicity) ECHCG PRE
[7] = post-emergence, 360 h, Rate 250 g/ha, post-emergence, visual assessment 15 DAA, 100%=total damage, 0%=no damage, read-out: Post-emergence herbicidal activity (percentage phytotoxicity) AVEFA POST
[8] = pre-emergence, 480 h, Rate 250 g/ha, pre-emergence, visual assessment 20 DAA, 100%=total damage, 0%=no damage, read-out: Pre-emergence herbicidal activity (percentage phytotoxicity) AVEFA PRE
[9] = post-emergence, 360 h, Rate 250 g/ha, post-emergence, visual assessment 15 DAA, 100%=total damage, 0%=no damage, read-out: Post-emergence herbicidal activity (percentage phytotoxicity) ALOMY POST
[10] = pre-emergence, 480 h, Rate 250 g/ha, pre-emergence, visual assessment 20 DAA, 100%=total damage, 0%=no damage, read-out: Pre-emergence herbicidal activity (percentage phytotoxicity) ALOMY PRE
[11] = post-emergence, 360 h, Rate 250 g/ha, post-emergence, visual assessment 15 DAA, 100%=total damage, 0%=no damage, read-out: Post-emergence herbicidal activity (percentage phytotoxicity) LOLPE POST
[12] = pre-emergence, 480 h, Rate 250 g/ha, pre-emergence, visual assessment 20 DAA, 100%=total damage, 0%=no damage, read-out: Pre-emergence herbicidal activity (percentage phytotoxicity) LOLPE PRE
[13] = post-emergence, 360 h, post-emergence, 250 g/ha, 15 DAA, visual score (100%=total damage; 0%=no damage), read-out: ECHCG POST herbicidal activity (percentage phytotoxicity)
[14] = pre-emergence, 480 h, pre-emergence, 250 g/ha, 20 DAA, visual score (100%=total damage; 0%=no damage), read-out: ECHCG PRE herbicidal activity (percentage phytotoxicity)
[15] = post-emergence, 360 h, post-emergence, 250 g/ha, 15 DAA, visual score (100%=total damage; 0%=no damage), read-out: AVEFA POST herbicidal activity (percentage phytotoxicity)
[16] = pre-emergence, 480 h, pre-emergence, 250 g/ha, 20 DAA, visual score (100%=total damage; 0%=no damage), read-out: AVEFA PRE herbicidal activity (percentage phytotoxicity)
[17] = post-emergence, 360 h, post-emergence, 250 g/ha, 15 DAA, visual score (100%=total damage; 0%=no damage), read-out: ALOMY POST herbicidal activity (percentage phytotoxicity)
[18] = pre-emergence, 480 h, pre-emergence, 250 g/ha, 20 DAA, visual score (100%=total damage; 0%=no damage), read-out: ALOMY PRE herbicidal activity (percentage phytotoxicity)
[19] = post-emergence, 360 h, post-emergence, 250 g/ha, 15 DAA, visual score (100%=total damage; 0%=no damage), read-out: LOLPE POST herbicidal activity (percentage phytotoxicity)
[20] = pre-emergence, 480 h, pre-emergence, 250 g/ha, 20 DAA, visual score (100%=total damage; 0%=no damage), read-out: LOLPE PRE herbicidal activity (percentage phytotoxicity)

Compound | pest or weed control at 250 g/ha [1, 5] [%] | pest or weed control at 250 g/ha [1, 6] [%] | pest or weed control at 250 g/ha [2, 7] [%] | pest or weed control at 250 g/ha [2, 8] [%] | pest or weed control at 250 g/ha [3, 9] [%] | pest or weed control at 250 g/ha [3, 10] [%] | pest or weed control at 250 g/ha [4, 11] [%] | pest or weed control at 250 g/ha [4, 12] [%] | pest or weed control at 250 g/ha [1, 13] [%] | pest or weed control at 250 g/ha [1, 14] [%] | pest or weed control at 250 g/ha [2, 15] [%] | pest or weed control at 250 g/ha [2, 16] [%] | pest or weed control at 250 g/ha [3, 17] [%] | pest or weed control at 250 g/ha [3, 18] [%] | pest or weed control at 250 g/ha [4, 19] [%] | pest or weed control at 250 g/ha [4, 20] [%]
Cc1cc(-c2ccc(F)cn2)cc(C)c1C1C(=O)CC(CC(=O)NCc2cccc(Cl)c2)C1=O (stereo not drawn) [Compound B401] | 100 | 80 | 100 | 70 | 90 | 80 | 90 | 90 |  |  |  |  |  |  |  | 
Cc1cc(-c2ncc(F)cc2F)cc(C)c1C1C(=O)CC(CC(=O)NOCc2ccccc2)C1=O (stereo not drawn) [Compound B402] | 100 | 80 | 100 | 70 | 90 | 60 | 90 | 80 |  |  |  |  |  |  |  | 
Cc1cc(-c2ncc(F)cc2F)cc(C)c1C1C(=O)CC(CC(=O)NO)C1=O (stereo not drawn) [Compound B403] | 100 | 0 | 100 | 50 | 90 | 60 | 80 | 20 |  |  |  |  |  |  |  | 
C=Cc1cc(-c2ncc(F)cn2)cc(C)c1C1C(=O)CC(CC(=O)NC(C)(C)C)C1=O (stereo not drawn) [Compound B404] | 100 | 90 | 100 | 70 | 90 | 80 | 100 | 80 |  |  |  |  |  |  |  | 
Cc1cc(-c2ncc(F)cn2)cc(Cl)c1C1C(=O)CC(CC(=O)NC(C)(C)C)C1=O (stereo not drawn) [Compound B405] | 100 | 100 | 100 | 90 | 100 | 90 | 100 | 100 |  |  |  |  |  |  |  | 
COc1ccc(C(=O)OC2=C(c3c(C)cc(-c4ncc(Cl)cn4)cc3C)C(=O)C(CC(=O)NC(C)(C)C)C2)cc1 (stereo not drawn) [Compound P1, [4-[2-(tert-butylamino)-2-oxo-ethyl]-2-[4-(5-chloropyrimidin-2-yl)-2,6-dimethyl-phenyl]-3-oxo-cyclopenten-1-yl] 4-methoxybenzoate] |  |  |  |  |  |  |  |  | 100 | 100 | 100 | 100 | 100 | 100 | 100 | 100
Cc1cc(-c2ncc(Cl)cn2)cc(C)c1C1=C(OC(=O)c2ccc(F)cc2)CC(CC(=O)NC(C)(C)C)C1=O (stereo not drawn) [Compound P2] |  |  |  |  |  |  |  |  | 100 | 100 | 100 | 90 | 100 | 90 | 100 | 100
Cc1cc(-c2ncc(Cl)cn2)cc(C)c1C1=C(OC(=O)C(C)(C)C)CC(CC(=O)NC(C)(C)C)C1=O (stereo not drawn) [Compound P3] |  |  |  |  |  |  |  |  | 100 | 100 | 90 | 80 | 100 | 100 | 100 | 100
CCOC(=O)OC1=C(c2c(C)cc(-c3ncc(Cl)cn3)cc2C)C(=O)C(CC(=O)NC(C)(C)C)C1 (stereo not drawn) [Compound P4] |  |  |  |  |  |  |  |  | 100 | 100 | 100 | 90 | 90 | 90 | 100 | 100
